Here are results for four molecules from paper PMC10892719 (Pharmaceutics, 2024).

The term IC50 denotes the concentration that inhibits the measured activity by half. The EC50 is the concentration at which the effect is half-maximal.

“Also recorded” adds a separate entry of the source.

T1 sequence (O42275 24-633): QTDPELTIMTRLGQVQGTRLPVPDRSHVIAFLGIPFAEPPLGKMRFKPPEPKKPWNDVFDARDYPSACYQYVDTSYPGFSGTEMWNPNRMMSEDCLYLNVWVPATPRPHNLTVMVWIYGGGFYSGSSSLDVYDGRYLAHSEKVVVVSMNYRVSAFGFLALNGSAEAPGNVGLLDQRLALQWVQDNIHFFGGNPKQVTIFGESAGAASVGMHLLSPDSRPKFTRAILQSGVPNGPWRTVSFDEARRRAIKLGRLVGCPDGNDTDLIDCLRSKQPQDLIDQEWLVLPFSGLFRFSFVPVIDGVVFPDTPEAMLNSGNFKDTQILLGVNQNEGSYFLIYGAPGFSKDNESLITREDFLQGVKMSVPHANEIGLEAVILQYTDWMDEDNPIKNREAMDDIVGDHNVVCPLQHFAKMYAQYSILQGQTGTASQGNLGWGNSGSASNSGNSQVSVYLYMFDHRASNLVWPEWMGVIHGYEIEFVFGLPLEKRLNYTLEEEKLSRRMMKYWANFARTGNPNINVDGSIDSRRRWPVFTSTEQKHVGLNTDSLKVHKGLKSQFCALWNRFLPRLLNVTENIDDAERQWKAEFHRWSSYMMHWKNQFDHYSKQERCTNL
T3 sequence (P05067 672-713 limits assumed): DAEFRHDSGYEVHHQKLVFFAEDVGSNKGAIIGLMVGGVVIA

The first data set addresses T1, electric eel acetylcholinesterase (eeAChE) (Electrophorus electricus, UniProt O42275).
T1 construct: purchased Sigma-Aldrich (Steinheim, Germany)
Put plainly: AChE inhibition, adapted Ellman method. The class given is biochemical. Particulars: mean of two independent experiments ± SD, read-out: AChE Inhib IC50. The protocol:
(§1) The enzyme inhibition of electric eel acetylcholinesterase (eeAChE) and equine butyrylcholinesterase (eqBChE) by our compounds was evaluated through an adaptation of Elmman´s method using reagents from Sigma-Aldrich (Steinheim, Germany). Stock solutions of each compound (1 mg) in MeOH (1 mL) were prepared and then working solutions for each ligand were obtained by the corresponding dilution of the stock solutions. A control measurement with 5 replicates (without ligand) and a calibration curve of 5 points with 3 replicates per point was performed. The preparation of each solution involved fixed volumes of 4-(2-hydroxyethyl)-1-piperazine-ethanesulfonic acid (HEPES) and cholinesterase (eeAChE or eqBChE) with different volumes of ligand solution, and it was left to rest for 15 min immediately after adding the cholinesterase. A blank solution containing HEPES and MeOH was also prepared at the same time. […] The slope for each calibration point (absorbance versus reaction time) was determined and the inhibition for each compound was calculated by using the following equation: %Inhibition=100−(vi/v0×100) where vi is the reaction rate (slope) for each point of the calibrate with ligand and v0 is the initial reaction rate (slope) for the control point (without ligand). […] Experiments were performed twice for each compound.
(Ellman's reagent forms a yellow product with free thiols.)
As to `CCN(C)C(=O)Oc1cccc(CNC(=O)c2cc3cc(O)ccc3[nH]2)c1` [Compound 5b2, 3-((5-Hydroxy-1H-indole-2-carboxamido)methyl)phenyl-ethyl(methyl)carbamate], the IC50 amounted to 80 ± 2 µM.
As to `CCN(C)C(=O)Oc1cccc(CCNC(=O)c2cc3ccccc3[nH]2)c1` [Compound 5c1, 3-(2-(1H-indole-2-carboxamido)ethyl)phenyl ethylmethylcarbamate], the IC50 turned out to be 40 ± 2 µM.
`CCN(C)C(=O)Oc1cccc(NC(=O)c2cc3cc(O)ccc3[nH]2)c1` [Compound 5a2, 3-(5-Hydroxy-1H-indole-2-carboxamido)phenyl ethyl(methyl)carbamate]: the IC50 worked out at 206 ± 4 µM.
Turning to `CCN(C)C(=O)Oc1cccc(CCNC(=O)c2cc3cccc(O)c3[nH]2)c1` [Compound 5c3, 3-(2-(7-Hydroxy-1H-indole-2-carboxamido)ethyl)phenyl ethyl(methyl)carbamate], the IC50 worked out at 26.8 ± 0.3 µM.

The target in another data set is T2, equine butyrylcholinesterase (eqBChE) (Equus caballus, UniProt P81908).
T2 construct: purchased Sigma-Aldrich (Steinheim, Germany)
T2 sequence (P81908 whole entry): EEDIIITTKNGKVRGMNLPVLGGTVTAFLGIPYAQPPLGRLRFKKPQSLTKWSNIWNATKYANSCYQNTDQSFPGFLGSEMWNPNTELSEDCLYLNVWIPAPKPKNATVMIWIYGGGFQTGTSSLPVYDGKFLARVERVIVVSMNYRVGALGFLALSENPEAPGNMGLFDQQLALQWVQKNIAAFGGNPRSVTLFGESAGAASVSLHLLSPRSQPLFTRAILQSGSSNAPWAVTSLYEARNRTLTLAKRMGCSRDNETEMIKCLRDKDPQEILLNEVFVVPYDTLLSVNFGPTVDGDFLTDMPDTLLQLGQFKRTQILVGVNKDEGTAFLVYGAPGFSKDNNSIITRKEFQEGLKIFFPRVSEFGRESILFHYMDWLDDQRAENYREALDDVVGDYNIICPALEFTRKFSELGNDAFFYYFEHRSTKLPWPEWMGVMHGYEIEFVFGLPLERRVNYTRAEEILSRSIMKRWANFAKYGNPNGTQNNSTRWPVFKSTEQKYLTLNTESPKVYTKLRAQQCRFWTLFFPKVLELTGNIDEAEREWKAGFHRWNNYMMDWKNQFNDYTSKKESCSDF
Nature of the data set: BChE inhibition, adapted Ellman method. The class given is biochemical. To be noted: IC50 (AChE)/IC50 (BChE). The procedure: as §1
For the molecule `CCN(C)C(=O)Oc1cccc(CNC(=O)c2cc3cc(O)ccc3[nH]2)c1` [Compound 5b2, 3-((5-Hydroxy-1H-indole-2-carboxamido)methyl)phenyl-ethyl(methyl)carbamate], the “SI (selectivity index)” value is listed as 3.0.
Same read-out and setting: the figure for `CCN(C)C(=O)Oc1cccc(CCNC(=O)c2cc3ccccc3[nH]2)c1` [Compound 5c1, 3-(2-(1H-indole-2-carboxamido)ethyl)phenyl ethylmethylcarbamate] is 2.8.
On to `CCN(C)C(=O)Oc1cccc(NC(=O)c2cc3cc(O)ccc3[nH]2)c1` [Compound 5a2, 3-(5-Hydroxy-1H-indole-2-carboxamido)phenyl ethyl(methyl)carbamate], for which the “SI (selectivity index)” value was found to be 64.0.
As to `CCN(C)C(=O)Oc1cccc(CCNC(=O)c2cc3cccc(O)c3[nH]2)c1` [Compound 5c3, 3-(2-(7-Hydroxy-1H-indole-2-carboxamido)ethyl)phenyl ethyl(methyl)carbamate], the “SI (selectivity index)” value amounted to 1.8.

Staying with this data set, now noted: eqBChE, mean of two independent experiments ± SD; read-out: BChE Inhib IC50.
With `CCN(C)C(=O)Oc1cccc(CNC(=O)c2cc3cc(O)ccc3[nH]2)c1` [Compound 5b2, 3-((5-Hydroxy-1H-indole-2-carboxamido)methyl)phenyl-ethyl(methyl)carbamate], the IC50 is 27.1 ± 0.1 µM.
Consider `CCN(C)C(=O)Oc1cccc(CCNC(=O)c2cc3ccccc3[nH]2)c1` [Compound 5c1, 3-(2-(1H-indole-2-carboxamido)ethyl)phenyl ethylmethylcarbamate], for which the IC50 turned out to be 14.5 ± 0.7 µM.
As to `CCN(C)C(=O)Oc1cccc(NC(=O)c2cc3cc(O)ccc3[nH]2)c1` [Compound 5a2, 3-(5-Hydroxy-1H-indole-2-carboxamido)phenyl ethyl(methyl)carbamate], the IC50 amounted to 3.22 ± 0.02 µM.
As for `CCN(C)C(=O)Oc1cccc(CCNC(=O)c2cc3cccc(O)c3[nH]2)c1` [Compound 5c3, 3-(2-(7-Hydroxy-1H-indole-2-carboxamido)ethyl)phenyl ethyl(methyl)carbamate], the IC50 was 14.9 ± 0.7 µM.

The next data set has as its target T3, Aβ1-42 (Homo sapiens, UniProt P05067).
T3 construct: purchased Genecust, Boynes, France
Nature of the data set: Inhibition of Aβ1-42 self-aggregation, thioflavin T fluorescence. It counts as biochemical. Particulars: Cinhibitor = 20 µM, Aβ1-42 40 µM, 37 °C, 24 h, read-out: Aβ42 Self-Aggreg. Inhib. The procedure: The Aβ peptide (Genecust, Boynes, France) was treated with 1,1,1,3,3,3-hexafluoropropan-2-ol (HFIP, Aldrich, Steinheim, Germany) and dissolved in a CH3CN/Na2CO3 (300 µM)/NaOH (250 µM) ([…], v/v/v) mixture in order to have a stable stock solution of Aβ1-42 with concentration 500 µM.
Solutions of the assayed compounds (0.5 mg/mL) were firstly prepared in 60% (v/v) DMSO/MeOH medium and then diluted in phosphate buffer (0.215 M, pH 8.0) to a concentration of 120 µM. The Aβ1-42 aggregation inhibition assays were performed according to a reported method based on the fluorescence emission of thioflavin T (ThT, Aldrich Steinheim, Germany). Therefore, Aβ1-42 (40 µM) was incubated at 37 °C for 24 h in phosphate buffer and in the presence or absence of each ligand (20 µM). Then, the samples were added to a 96-well plate with 180 µL of 5 µM ThT in 50 mM glycine-NaOH (pH 8.5) buffer. Blank samples were identically prepared for each concentration but in the absence of the peptide. The ThT fluorescence was measured at 445 nm (excitation) and 485 nm (emission). The percent of aggregation inhibition was calculated by the following equation:I% = 100 − (IFi/IF0 × 100), in which IFi and IF0 are the fluorescence intensities, in the presence and the absence of the tested compound, subtracted from the fluorescence intensities due to the respective blanks. The reported values were obtained as the mean ± SEM of two different experiments performed in duplicate.
The inhibitory capacity of the RIV-IND hybrids towards Aβ42 self-aggregation was evaluated in vitro by molecular fluorescence spectroscopy through the thioflavin T (ThT) method. In fact, since there is an increase in the absorbance and emission of ThT when it binds to amyloid fibrils, it is possible to determine the percent of Aβ42 self-aggregation (see Table 1). The assays were performed in the presence of 20 µM of inhibitor to overcome the solubility limitations of some compounds in the phosphate buffer aqueous medium.
For the molecule `CCN(C)C(=O)Oc1cccc(CNC(=O)c2cc3cc(O)ccc3[nH]2)c1` [Compound 5b2, 3-((5-Hydroxy-1H-indole-2-carboxamido)methyl)phenyl-ethyl(methyl)carbamate], the inhibition at 20 µM was found to be 29.4%.
Turning to `CCN(C)C(=O)Oc1cccc(CCNC(=O)c2cc3ccccc3[nH]2)c1` [Compound 5c1, 3-(2-(1H-indole-2-carboxamido)ethyl)phenyl ethylmethylcarbamate], the inhibition at 20 µM is 25.6%.
With `CCN(C)C(=O)Oc1cccc(NC(=O)c2cc3cc(O)ccc3[nH]2)c1` [Compound 5a2, 3-(5-Hydroxy-1H-indole-2-carboxamido)phenyl ethyl(methyl)carbamate], the inhibition at 20 µM was determined as 25%.
For the molecule `CCN(C)C(=O)Oc1cccc(CCNC(=O)c2cc3cccc(O)c3[nH]2)c1` [Compound 5c3, 3-(2-(7-Hydroxy-1H-indole-2-carboxamido)ethyl)phenyl ethyl(methyl)carbamate], the inhibition at 20 µM came out at 55.5%.

The subject of another data set is SH-SY5Y cells. Put plainly: Cell viability dose-response screening, MTT. It counts as cell-based, human. To be noted: 24 h, screening 0.5 µM to 20 µM. The procedure: (§2) Cell viability, following treatment with the compounds, was determined using the colorimetric MTT (3-(4,5-dimethylthiazol-2-yl)-2,5-diphenyltetrazolium bromide) assay. The tested compounds (5a1-3, 5b1-3, 5c1-3) were dissolved in DMSO to produce stock solutions of 25 mM and stored at −20 °C. A concentration screening was performed for 0.5 µM to 20 µM final concentrations to choose the highest nontoxic concentration. SH-SY5Y human neuroblastoma cell line (ATCC-CRL-2266) was cultured in Dulbecco’s modified Eagle’s medium (DMEM) (Gibco-Invitrogen, Life Technologies Ltd., Waltham, MA, USA) with heat-inactivated fetal calf serum (10%), penicillin (50 U/mL) and streptomycin (50 µg/mL) at 37 °C with 5% CO2. Cells were plated at 0.15 × 10^6 cells/mL one day prior to the start of the experiment. The cells were then incubated with the appropriate concentration of the compounds for 24 h. After the incubation period, the cells were washed once with PBS and incubated with 200 µL MTT (0.5 mg/mL) for 2 h at 37 °C with 5% CO2. During this period, cellular dehydrogenase successfully metabolized MTT into formazan, which was then solubilized using 200 µL of 0.04 M HCl/isopropanol. Absorbance was measured at 570 nm.
The new RIV-IND hybrids were tested to determine their protective role in the toxicity induced by either Aβ1-42 peptides or iron/ascorbate. SH-SY5Y cells were incubated with a set of concentrations of each of the compounds and a dose–response curve was constructed to select the highest nontoxic concentration.
Figure 3 Dose–response screening of RIV-IND compounds 5a1-3, 5b1-3 and 5c1-3 measured by MTT reduction ability on SH-SY5Y cells treated with different concentrations of the compounds for 24 h. Results are expressed relatively to untreated cells, with the mean ± standard error of the mean (SEM) derived from three independent experiments. * p < 0.05; ** p < 0.01; *** p < 0.001 compared to untreated cells. (The dot line indicates 100% cellular viability).
On to `CCN(C)C(=O)Oc1cccc(CNC(=O)c2cc3cc(O)ccc3[nH]2)c1` [Compound 5b2, 3-((5-Hydroxy-1H-indole-2-carboxamido)methyl)phenyl-ethyl(methyl)carbamate], for which the highest nontoxic concentration amounted to 2.5 µM.
Regarding `CCN(C)C(=O)Oc1cccc(CCNC(=O)c2cc3ccccc3[nH]2)c1` [Compound 5c1, 3-(2-(1H-indole-2-carboxamido)ethyl)phenyl ethylmethylcarbamate], the highest nontoxic concentration stood at 5 µM.
Same read-out and setting: the value for `CCN(C)C(=O)Oc1cccc(NC(=O)c2cc3cc(O)ccc3[nH]2)c1` [Compound 5a2, 3-(5-Hydroxy-1H-indole-2-carboxamido)phenyl ethyl(methyl)carbamate] was 2.5 µM; that for `CCN(C)C(=O)Oc1cccc(CCNC(=O)c2cc3cccc(O)c3[nH]2)c1` [Compound 5c3, 3-(2-(7-Hydroxy-1H-indole-2-carboxamido)ethyl)phenyl ethyl(methyl)carbamate] was 5 µM.

The test system of a further data set is SH-SY5Y cells. Nature of the data set: Neuroprotection against Aβ1-42-induced toxicity, MTT. It counts as cell-based, human. To be noted: Aβ1-42 1 µM, 24 h, optimized concentration of each compound. The protocol:
as §2
To test whether the compounds have a protective effect against toxicity induced by Aβ1-42 or iron/ascorbate, the cells were pre-incubated for 1 h with each compound, followed by the addition of Aβ1-42 or iron/ascorbate and incubation for an additional 24 h. Aβ1-42 (Bachem, Torrance, CA, USA) was prepared in sterile water to produce a stock solution of 443 µM and added to the cells at a final concentration of 1 µM. Ferrous sulfate and L-ascorbic acid (Sigma Chemical Co, St. Louis, MO, USA), prepared in sterile water, were added to the medium together at a final concentration of 5 mM and 2.5 mM, respectively. For this assay, the optimal concentration of each compound was used to prevent cellular demise induced by Aβ1-42 or iron/ascorbate. Compound 5a1 was added to the medium at a 1 µM final concentration; compounds 5a2, 5a3, 5b1, 5b2 and 5c2 were added to the medium at a 2.5 µM final concentration; compounds 5c1 and 5c3 were added to the medium at a 5 µM final concentration; and compound 5b3 was added to the medium at a 10 µM final concentration. […] Controls were employed for each plate using untreated cells and Aβ1-42 or iron/ascorbate only. Cell reduction ability was normalized to the untreated condition. All data are expressed as mean ± SEM of at least three independent experiments performed in duplicate. Statistical analyses were performed for normality assessment using Shapiro–Wilk’s test followed by the Kruskal–Wallis test considering that normality was not verified. Post hoc analysis was performed using uncorrected Dunn’s test. A p value < 0.05 was considered statistically significant.
Figure 4 Neuroprotective effect of RIV-IND compounds against cellular toxicity induced by Aβ1-42 measured by MTT reduction ability on SH-SY5Y cells pretreated with […] for one hour, followed by a 24 h incubation with the optimized concentration of each compound. Results are expressed relatively to untreated cells, with the mean ± standard error of the mean (SEM) derived from three to seven independent experiments. * p < 0.05; ** p < 0.01; *** p < 0.001; **** p < 0.0001 compared to untreated cells. # p < 0.05 compared to Aβ1-42-treated cells. (The dot line indicates the decrease in cellular viability induced by Aβ).
Turning to `CCN(C)C(=O)Oc1cccc(CNC(=O)c2cc3cc(O)ccc3[nH]2)c1` [Compound 5b2, 3-((5-Hydroxy-1H-indole-2-carboxamido)methyl)phenyl-ethyl(methyl)carbamate], the “neuroprotective effect against toxicity induced by Aβ1-42” value was “can prevent the toxicity induced by Aβ1-42 to cells; also recorded: able to rescue Aβ1-42-induced toxicity to levels that were not significantly different from untreated cells; also recorded: able to prevent the toxicity induced by Aβ1-42 to neuroblastoma cells (SH-SY5Y)”.
`CCN(C)C(=O)Oc1cccc(CCNC(=O)c2cc3cccc(O)c3[nH]2)c1` [Compound 5c3, 3-(2-(7-Hydroxy-1H-indole-2-carboxamido)ethyl)phenyl ethyl(methyl)carbamate]: the “neuroprotective effect against toxicity induced by Aβ1-42” value is given as “also present neuroprotection”.

Test system in another data set: not listed separately
Nature of the data set: DPPH free radical scavenging (antioxidant) assay. To be noted: read-out: Antioxidant Activity EC50; DPPH method, mean of three independent experiments. A general note: DPPH is a stable violet radical that fades when it is reduced.
Procedure: The radical scavenging activity (antioxidant capacity) of the herein-developed RIV-IND hybrids was determined by the DPPH method [33]. Working solutions of the compounds in 10% DMSO/MeOH (, HoneywellSeelze, Germany) medium were used to prepare 5 methanolic solutions (5 points, 3 replicates) containing DPPH (Sigma-Aldrich, Steinheim, Germany) and different concentrations of compound up to 3.5 mL total volume. […] The respective antioxidant activity (%AA) was calculated using the following equation: %AA=ADPPH−Aligand/ADPPH×100
The reported results were obtained as the mean values of three independent experiments.
The new RIV-IND compounds were also screened for their radical scavenging activity (EC50), according to the 2,2-diphenyl-1-picrylhydrazyl (DPPH) free radical method.
Consider `CCN(C)C(=O)Oc1cccc(CNC(=O)c2cc3cc(O)ccc3[nH]2)c1` [Compound 5b2, 3-((5-Hydroxy-1H-indole-2-carboxamido)methyl)phenyl-ethyl(methyl)carbamate], for which the EC50 turned out to be 7.8 ± 0.5 µM.
Regarding `CCN(C)C(=O)Oc1cccc(CCNC(=O)c2cc3ccccc3[nH]2)c1` [Compound 5c1, 3-(2-(1H-indole-2-carboxamido)ethyl)phenyl ethylmethylcarbamate], the EC50 is greater than 2000 µM.
As for `CCN(C)C(=O)Oc1cccc(NC(=O)c2cc3cc(O)ccc3[nH]2)c1` [Compound 5a2, 3-(5-Hydroxy-1H-indole-2-carboxamido)phenyl ethyl(methyl)carbamate], the EC50 was found to be 8.4 ± 0.2 µM.
As to `CCN(C)C(=O)Oc1cccc(CCNC(=O)c2cc3cccc(O)c3[nH]2)c1` [Compound 5c3, 3-(2-(7-Hydroxy-1H-indole-2-carboxamido)ethyl)phenyl ethyl(methyl)carbamate], the EC50 came out at 20.7 ± 0.4 µM.
